Results reported in US11684589B2, “Pharmaceutical compositions for use in the therapy of blepharitis” (NOVALIQ GMBH, priority 2016, dated 2023).

What was measured:
Assay type in all cases: in vivo, patients
posterior blepharitis = test: Assessment of posterior blepharitis severity in observational patient study; conditions: for Posterior blepharitis shift table, changes from baseline for both eyes: 7 weeks
Procedure: (§1) A prospective, uncontrolled, open-label, multi-center observational study was conducted with a total of 72 (53 female, 19 male) patients included, with 1 to 20 patients per site. Two patients were lost for follow-up during the study. Patients to be included had to fulfill following criteria: • Males or females≥18 years of age; • Patients with symptoms as determined by • Tear Film Break-Up Time (TFBUT)≤10 s • Ocular Surface Disease Index≥16 and ≤55 • Schirmer I Test≥2 mm (recorded within 5 min) • Sum of peripheral corneal and conjunctival staining grade≤10 (Oxford) • Altered secretion and expressibility of the meibomian glands. Among those, patients fulfilling the following criteria were not included in the study: • Known hypersensitivity to any of the components of NovaTears®; • Contact lens wear, pregnancy, or breast feeding; • Presence of dry eye disease (DED) caused by any other known underlying systemic disease; • Planned ophthalmologic surgical procedure during the course of the study; • Use of lipid-containing or tear-film stabilizing eye drops/sprays except cyclosporin formulations. Patients selected as described above were administered 1-perfluorohexyloctane (F6H8) eye drops, manufactured under the tradename “NovaTears®” (Novaliq GmbH, Heidelberg, Germany) for a period of 7 weeks. Said formulation consists essentially of 1-perfluorohexyloctane (F6H8), it is water-free and contains no additional preservatives or ingredients. A dose of 3 to 4 droplets (corresponding to 40 μl, 10 μl per drop) per eye and day were administered topically to the eye, with 1 droplet being administered as a single dose. NovaTears® single droplets were administered directly to the surface of the eye into a pocket that was formed by gently pulling down the lower eyelid. Assessment of the eyes treated was performed once before the start of NovaTears® administration (baseline) and once after 7 weeks of treatment (follow-up). Anterior blepharitis involves inflammation of the lid margin anterior to the gray line and is usually concentrated around the eyelashes and follicles. Posterior blepharitis involves inflammation of the posterior lid margin. The severity of anterior and posterior blepharitis was rated separately for each eye by selecting one of the following ratings: “none”, “+”, “++”, “+++” (with “+++” indicating most severe blepharitis anterior or posterior).

[1] = tested on: abnormal lid margin features; test: Lid margin assessment (abnormal lid margin features) in observational patient study
Procedure: A prospective, uncontrolled, open-label, multi-center observational study was conducted with a total of 72 (53 female, 19 male) patients included, with 1 to 20 patients per site. Two patients were lost for follow-up during the study. Patients to be included had to fulfill following criteria: • Males or females≥18 years of age; • Patients with symptoms as determined by • Tear Film Break-Up Time (TFBUT)≤10 s • Ocular Surface Disease Index≥16 and ≤55 • Schirmer I Test≥2 mm (recorded within 5 min) • Sum of peripheral corneal and conjunctival staining grade≤10 (Oxford) • Altered secretion and expressibility of the meibomian glands.
Among those, patients fulfilling the following criteria were not included in the study: • Known hypersensitivity to any of the components of NovaTears®; • Contact lens wear, pregnancy, or breast feeding; • Presence of dry eye disease (DED) caused by any other known underlying systemic disease; • Planned ophthalmologic surgical procedure during the course of the study; • Use of lipid-containing or tear-film stabilizing eye drops/sprays except cyclosporin formulations.
Patients selected as described above were administered 1-perfluorohexyloctane (F6H8) eye drops, manufactured under the tradename “NovaTears®” (Novaliq GmbH, Heidelberg, Germany) for a period of 7 weeks. Said formulation consists essentially of 1-perfluorohexyloctane (F6H8), it is water-free and contains no additional preservatives or ingredients. A dose of 3 to 4 droplets (corresponding to 40 μl, 10 μl per drop) per eye and day were administered topically to the eye, with 1 droplet being administered as a single dose. NovaTears® single droplets were administered directly to the surface of the eye into a pocket that was formed by gently pulling down the lower eyelid. Assessment of the eyes treated was performed once before the start of NovaTears® administration (baseline) and once after 7 weeks of treatment (follow-up).
Lid Margin Assessment As a further parameter abnormal lid margin features, such as teleangiectasia, plugging and lid swelling were assessed in the study. Assessment was performed for each eye separately.

anterior blepharitis = test: Assessment of anterior blepharitis severity in observational patient study; conditions: for Anterior blepharitis shift table, changes from baseline for both eyes: 7 weeks
Procedure: as §1

[2] = 7 weeks of treatment, 3 to 4 droplets per eye and day, including patients with scores ++ and +

## CCCCCCCCC(F)(F)C(F)(F)C(F)(F)C(F)(F)C(F)(F)C(F)(F)F [1-perfluorohexyloctane]
Posterior blepharitis; [2]
  Severity of posterior blepharitis after treatment: decreased for all patients
Posterior blepharitis; baseline 0 (none), follow-up 0 (none)
  Posterior blepharitis shift table, changes from baseline for both eyes: 26 eyes
Posterior blepharitis; baseline 0 (none), follow-up +++
  Posterior blepharitis shift table, changes from baseline for both eyes: 0 eyes
Posterior blepharitis; baseline 0 (none), follow-up ++
  Posterior blepharitis shift table, changes from baseline for both eyes: 0 eyes
Posterior blepharitis; baseline 0 (none), follow-up +
  Posterior blepharitis shift table, changes from baseline for both eyes: 5 eyes
Posterior blepharitis; baseline +++, follow-up 0 (none)
  Posterior blepharitis shift table, changes from baseline for both eyes: 4 eyes
Posterior blepharitis; baseline +++, follow-up +++
  Posterior blepharitis shift table, changes from baseline for both eyes: 0 eyes
Posterior blepharitis; baseline +++, follow-up ++
  Posterior blepharitis shift table, changes from baseline for both eyes: 0 eyes
Posterior blepharitis; baseline +++, follow-up +
  Posterior blepharitis shift table, changes from baseline for both eyes: 2 eyes
Posterior blepharitis; baseline ++, follow-up 0 (none)
  Posterior blepharitis shift table, changes from baseline for both eyes: 10 eyes
Posterior blepharitis; baseline ++, follow-up +++
  Posterior blepharitis shift table, changes from baseline for both eyes: 0 eyes
Posterior blepharitis; baseline ++, follow-up ++
  Posterior blepharitis shift table, changes from baseline for both eyes: 8 eyes
Posterior blepharitis; baseline ++, follow-up +
  Posterior blepharitis shift table, changes from baseline for both eyes: 14 eyes
Posterior blepharitis; baseline +, follow-up 0 (none)
  Posterior blepharitis shift table, changes from baseline for both eyes: 20 eyes
Posterior blepharitis; baseline +, follow-up +++
  Posterior blepharitis shift table, changes from baseline for both eyes: 0 eyes
Posterior blepharitis; baseline +, follow-up ++
  Posterior blepharitis shift table, changes from baseline for both eyes: 3 eyes
Posterior blepharitis; baseline +, follow-up +
  Posterior blepharitis shift table, changes from baseline for both eyes: 30 eyes
Posterior blepharitis; follow-up after 7 weeks of treatment, 122 eyes from 61 patients, baseline 6
  Assessment of posterior blepharitis, grade +++: 0 eyes
Posterior blepharitis; follow-up after 7 weeks of treatment, 122 eyes from 61 patients, baseline 31
  Assessment of posterior blepharitis, grade none: 60 eyes
Posterior blepharitis; follow-up after 7 weeks of treatment, 122 eyes from 61 patients, baseline 32
  Assessment of posterior blepharitis, grade ++: 11 eyes
Posterior blepharitis; follow-up after 7 weeks of treatment, 122 eyes from 61 patients, baseline 53
  Assessment of posterior blepharitis, grade +: 51 eyes
Posterior blepharitis; patients with the most severe posterior blepharitis rated +++
  Reduction in the severity of posterior blepharitis after treatment: most significant reduction
[1]; 7 weeks of treatment
  Abnormal lid margin features (teleangiectasia, plugging, lid swelling) after treatment: significantly reduced
[1]; follow-up after 7 weeks of treatment, assessed for each eye separately, baseline 30
  Assessment of lid margin, Lid Swelling: 20
[1]; follow-up after 7 weeks of treatment, assessed for each eye separately, baseline 74
  Assessment of lid margin, Teleangiectasia: 49
[1]; follow-up after 7 weeks of treatment, assessed for each eye separately, baseline 90
  Assessment of lid margin, Plugging: 59
Anterior blepharitis; [2]
  Severity of anterior blepharitis after treatment: decreased for all patients
Anterior blepharitis; baseline +++, follow-up +++
  Anterior blepharitis shift table, changes from baseline for both eyes: 0 eyes
Anterior blepharitis; baseline +++, follow-up ++
  Anterior blepharitis shift table, changes from baseline for both eyes: 0 eyes
Anterior blepharitis; baseline +++, follow-up +
  Anterior blepharitis shift table, changes from baseline for both eyes: 0 eyes
Anterior blepharitis; baseline +++, follow-up none
  Anterior blepharitis shift table, changes from baseline for both eyes: 0 eyes
Anterior blepharitis; baseline ++, follow-up +++
  Anterior blepharitis shift table, changes from baseline for both eyes: 0 eyes
Anterior blepharitis; baseline ++, follow-up ++
  Anterior blepharitis shift table, changes from baseline for both eyes: 4 eyes
Anterior blepharitis; baseline ++, follow-up +
  Anterior blepharitis shift table, changes from baseline for both eyes: 7 eyes
Anterior blepharitis; baseline ++, follow-up none
  Anterior blepharitis shift table, changes from baseline for both eyes: 4 eyes
Anterior blepharitis; baseline +, follow-up +++
  Anterior blepharitis shift table, changes from baseline for both eyes: 0 eyes
Anterior blepharitis; baseline +, follow-up ++
  Anterior blepharitis shift table, changes from baseline for both eyes: 1 eyes
Anterior blepharitis; baseline +, follow-up +
  Anterior blepharitis shift table, changes from baseline for both eyes: 20 eyes
Anterior blepharitis; baseline +, follow-up none
  Anterior blepharitis shift table, changes from baseline for both eyes: 38 eyes
Anterior blepharitis; baseline none, follow-up +++
  Anterior blepharitis shift table, changes from baseline for both eyes: 0 eyes
Anterior blepharitis; baseline none, follow-up ++
  Anterior blepharitis shift table, changes from baseline for both eyes: 2 eyes
Anterior blepharitis; baseline none, follow-up +
  Anterior blepharitis shift table, changes from baseline for both eyes: 15 eyes
Anterior blepharitis; baseline none, follow-up none
  Anterior blepharitis shift table, changes from baseline for both eyes: 31 eyes
Anterior blepharitis; follow-up after 7 weeks of treatment, 122 eyes from 61 patients, baseline 0
  Assessment of anterior blepharitis, grade +++: 0 eyes
Anterior blepharitis; follow-up after 7 weeks of treatment, 122 eyes from 61 patients, baseline 15
  Assessment of anterior blepharitis, grade ++: 7 eyes
Anterior blepharitis; follow-up after 7 weeks of treatment, 122 eyes from 61 patients, baseline 48
  Assessment of anterior blepharitis, grade none: 73 eyes
Anterior blepharitis; follow-up after 7 weeks of treatment, 122 eyes from 61 patients, baseline 59
  Assessment of anterior blepharitis, grade +: 42 eyes
